From patent US11098053B2, “Enhanced osteogenic activity of daidzein analogs on human mesenchymal stem cells” (THE ADMINISTRATORS OF THE TULANE EDUCATIONAL FUND, priority 2013, dated 2021)
“Also recorded” adds a separate entry of the source.

Legend:
[1] = tested on: Human bone marrow derived mesenchymal stem cells (MSCs); test: Osteogenic differentiation of MSCs (Alizarin Red calcium deposition); conditions: for osteogenic activity (structure-activity summary, in words): donor MSCs; for osteogenic activity (structure-activity summary, in words) / osteogenesis averaged over all three donors, relative to vehicle treated MSCs / cytotoxicity to donor MSCs: 1 μM; for IC50: read-out: IC50 averaged among the three donors, mean of three donors; for cytotoxicity to donor MSCs: MSCs from three donors (toxic in Donor 2 and Donor 3); for osteogenic differentiation of MSCs, fold relative to vehicle treated MSCs: daidzein 1 μM, genistein 1 μM, Alizarin Red
[2] = tested on: BMSCs; test: Osteogenic differentiation of BMSCs (alizarin red); conditions: 14 days; for osteogenic differentiation (calcium deposition), fold relative to vehicle-treated BMSCs: n=6 donors; for osteogenic differentiation (calcium deposition), fold relative to vehicle-treated BMSCs / cytotoxicity of BMSCs by bright field microscopy, compared to vehicle: estrogen 10 nM, others 1 μM; for osteogenic potential of BMSCs relative to vehicle, with fulvestrant: 1 μM + 100 nM fulvestrant; for osteogenic potential of BMSCs relative to vehicle, with fulvestrant / osteogenic potential of BMSCs relative to vehicle, inhibitor study, without fulvestrant: FIG. 12
[3] = tested on: MSCs (Sp7, ALP, OP, IGF1 transcripts); test: qRT-PCR of osteogenic transcription factors in MSCs; type: cell-based, human; conditions: pooled MSCs, 1 μM, 14 days
Text: . […] The following primer set sequence for was used: Sp7 forward 5′-CCAGTGTCTACACCTCTC-3′ (SEQ ID NO: 1), reverse 5′-ATGGAGTAGGAGTGTTGC-3′ (SEQ ID NO: 2); IGF-1 forward 5′-CTGTGATCTAAGGAGGCTG-3′ (SEQ ID NO: 3), reverse 5′-[…]-3′ (SEQ ID NO: 4); ALP forward 5′-[…]-3′ (SEQ ID NO: 5), reverse 5′-[…]-3′ (SEQ ID NO: 6); osteopontin forward 5′-[…]-3′ (SEQ ID NO: 7), reverse 5′-[…]-3′ (SEQ ID NO: 8). β-actin forward 5′-[…]-3′ (SEQ ID NO: 9), reverse 3′-[…]-5′ (SEQ ID NO: 10) was used as an internal reference point. At the completion of the reaction, ΔΔCt was calculated to quantify mRNA expression.

[4] = tested on: ASCs; test: Osteogenic differentiation of ASCs (alizarin red); conditions: 14 days; for osteogenic differentiation (calcium deposition), fold relative to vehicle-treated ASCs: n=6 donors; for osteogenic differentiation (calcium deposition), fold relative to vehicle-treated ASCs / cytotoxicity of ASCs by bright field microscopy, compared to vehicle: estrogen 10 nM, others 1 μM; for osteogenic potential of ASCs relative to vehicle, with fulvestrant: 1 μM + 100 nM fulvestrant; for osteogenic potential of ASCs relative to vehicle, with fulvestrant / osteogenic potential of ASCs relative to vehicle, inhibitor study, without fulvestrant: FIG. 12
[5] = tested on: BMSCs
[6] = screen, MSCs from one donor (Donor 1), analogs and daidzein 1 μM, estrogen 10 nM, 14 days
[7] = Donor 1, estrogen 10 nM, 14 days
[8] = Donor 2, estrogen 10 nM, 14 days
[9] = Donor 3, estrogen 10 nM, 14 days

## COc1ccc2c(=O)c(-c3ccc(O)cc3)coc2c1 [2a, 3-(4-Hydroxyphenyl)-7-methoxy-4H-chromen-4-one]
[1]; 14 days
  osteogenic activity (structure-activity summary, in words): modest osteogenic activity

## CCOc1ccc2c(=O)c(-c3ccc(O)cc3)coc2c1 [2b, 7-Ethoxy-3-(4-hydroxyphenyl)-4H-chromen-4-one]
[1]; 14 days
  osteogenic activity (structure-activity summary, in words): modest osteogenic activity

## CC(C)Oc1ccc2c(=O)c(-c3ccc(O)cc3)coc2c1 [2c, 3-(4-Hydroxyphenyl)-7-isopropoxy-4H-chromen-4-one]
[2]
  osteogenic differentiation (calcium deposition), fold relative to vehicle-treated BMSCs: 1.6 fold
[3]
  ALP expression relative to cells treated with vehicle in ODM: 2.45±0.80
  IGF1 expression relative to cells treated with vehicle in ODM: 26.96±9.19
  OP expression relative to cells treated with vehicle in ODM: 2.68±0.11
  Sp7 expression relative to cells treated with vehicle in ODM: 20.08±4.81
[4]
  osteogenic differentiation (calcium deposition), fold relative to vehicle-treated ASCs: 1.7 fold
[1]
  differentiation at day 7: enhanced differentiation at day 7
[1]; 14 days
  osteogenic activity (structure-activity summary, in words): marked enhancement
  IC50: 58.2 nM
  osteogenesis averaged over all three donors, relative to vehicle treated MSCs: 2.0±0.41
[1]; [6]
  induction category of osteogenic differentiation (no, low, high induction): high inducers

## CCCOc1ccc2c(=O)c(-c3ccc(O)cc3)coc2c1 [2d, 3-(4-Hydroxyphenyl)-7-propoxy-4H-chromen-4-one]
[1]; 14 days
  cytotoxicity to donor MSCs: cytotoxic; also recorded: toxicity to two donor cells
  osteogenic activity (structure-activity summary, in words): modest osteogenesis

## CCCCOc1ccc2c(=O)c(-c3ccc(O)cc3)coc2c1 [2e, 7-Butoxy-3-(4-hydroxyphenyl)-4H-chromen-4-one]
[1]; 14 days
  osteogenic activity (structure-activity summary, in words): marked enhancement; also recorded: over two-fold increase
  osteogenesis averaged over all three donors, relative to vehicle treated MSCs: 2.3±0.33
[1]; [6]
  induction category of osteogenic differentiation (no, low, high induction): high inducers

## CC(C)COc1ccc2c(=O)c(-c3ccc(O)cc3)coc2c1 [2f, 3-(4-Hydroxyphenyl)-7-isobutoxy-4H-chromen-4-one]
[1]
  differentiation at day 7: enhanced differentiation at day 7
[1]; donor 3, 1 nM-1 μM, 14 days
  IC50 (analog concentration required to achieve 1.5 fold relative bone differentiation): 1.38 μM
[1]; 14 days
  osteogenic activity (structure-activity summary, in words): marked enhancement
  IC50: 504 nM
  osteogenesis averaged over all three donors, relative to vehicle treated MSCs: 1.8±0.48
[1]; [6]
  induction category of osteogenic differentiation (no, low, high induction): high inducers

## O=c1c(-c2ccc(O)cc2)coc2cc(OC3CCCC3)ccc12 [2g, 7-Cyclopentyloxy-3-(4-hydroxyphenyl)-4H-chromen-4-one]
[2]
  osteogenic potential of BMSCs relative to vehicle, with fulvestrant: 0.8 fold
  osteogenic differentiation (calcium deposition), fold relative to vehicle-treated BMSCs: 1.6 fold
[2]; 1 μM
  osteogenic potential of BMSCs relative to vehicle, inhibitor study, without fulvestrant: 1.9 fold
[5]
  cytotoxicity at higher dosages: nor lead to cytotoxicity
[4]
  osteogenic potential of ASCs relative to vehicle, with fulvestrant: 0.9 fold
  osteogenic differentiation (calcium deposition), fold relative to vehicle-treated ASCs: 2.0 fold
[4]; 1 μM
  osteogenic potential of ASCs relative to vehicle, inhibitor study, without fulvestrant: 2.0 fold
[1]; 14 days
  osteogenic activity (structure-activity summary, in words): modest osteogenic activity
  osteogenesis averaged over all three donors, relative to vehicle treated MSCs: 2.0±0.64

## CCCCCCOc1ccc2c(=O)c(-c3ccc(O)cc3)coc2c1 [2h, 7-Hexyloxy-3-(4-hydroxyphenyl)-4H-chromen-4-one]
[1]; 14 days
  osteogenic activity (structure-activity summary, in words): marked enhancement
  osteogenesis averaged over all three donors, relative to vehicle treated MSCs: 2.0±0.48
[1]; [6]
  induction category of osteogenic differentiation (no, low, high induction): high inducers

## O=c1c(-c2ccc(O)cc2)coc2cc(OCCN3CCCCC3)ccc12 [2i, 3-(4-Hydroxyphenyl)-7-(2-(piperidin-1-yl)ethoxy)-4H-chromen-4-one]
[1]; 14 days
  cytotoxicity to donor MSCs: cytotoxic; also recorded: potent toxicity to two donors
[1]; [6]
  induction category of osteogenic differentiation (no, low, high induction): high inducers

## O=c1c(-c2ccc(O)cc2)coc2cc(OCCN3CCCC3)ccc12 [2j, 3-(4-Hydroxyphenyl)-7-(2-(pyrrolidin-1-yl)ethoxy)-4H-chromen-4-one]
[1]; 14 days
  osteogenic activity (structure-activity summary, in words): no osteogenic effect

## CN(C)CCOc1ccc2c(=O)c(-c3ccc(O)cc3)coc2c1 [2k, 7-(2-(Dimethylamino)ethoxy)-3-(4-hydroxyphenyl)-4H-chromen-4-one]
[1]; 14 days
  osteogenic activity (structure-activity summary, in words): no osteogenic effect

## COc1ccc(NC(=O)c2ccc(OC)cc2OC)cc1 [12a, 2,4-Dimethoxy-N-(4-methoxyphenyl)benzamide]
[1]; 14 days
  osteogenic activity (structure-activity summary, in words): strong osteogenic activity
[1]; [6]
  induction category of osteogenic differentiation (no, low, high induction): high inducers

## COc1ccc(C(=O)Nc2ccc(OCC(C)C)cc2)c(OC)c1 [12b, N-(4-Isobutoxyphenyl)-2,4-dimethoxybenzamide]
[1]; 14 days
  osteogenic activity (structure-activity summary, in words): not active at all

## CC1(C)C=Cc2c(ccc3c(=O)c(-c4ccc(O)cc4)coc23)O1 [compound 3, 3-(4-Hydroxyphenyl)-8,8-dimethyl-8H-pyrano[2,3f]-chromen-4-one]
other
  melting point: 262 to 264 °C
[1]; 14 days
  osteogenic activity (structure-activity summary, in words): did not exhibit any osteogenic activity

## CC1(C)CCc2c(ccc3c2OCC(c2ccc(O)cc2)C3=O)O1 (centres unmarked) [compound 4, 3-(4-Hydroxyphenyl)-8,8-dimethyl-2,3,9,10-tetrahydropyrano[2,3-f]chromen-4(8H)-one]
other
  melting point: 176 to 180 °C
[1]; 14 days
  osteogenic activity (structure-activity summary, in words): modest potential

## CC1(C)CCc2c(ccc3c2OCC(c2ccc(O)cc2)C3)O1 (centres unmarked) [compound 5, 4-(8,8-Dimethyl-2,3,4,8,9,10-hexahydropyrano[2,3-f]chromen-3-yl)phenol]
[1]; 14 days
  osteogenic activity (structure-activity summary, in words): no discernible osteogenic activity

## C#CCOc1ccc2c(=O)c(-c3ccc(O)cc3)coc2c1 [compound 6, 3-(4-Hydroxyphenyl)-7-(prop-2-yn-1-yloxy)-4H-chromen-4-one]
other
  melting point: 228 to 230 °C
[1]; 14 days
  osteogenic activity (structure-activity summary, in words): only modest osteogenic potential

## Cc1cc2c(ccc3c(=O)c(-c4ccc(O)cc4)coc32)o1 [compound 7, 3-(4-hydroxyphenyl)-8-methyl-4H-furo[2,3-h]chromen-4-one]
[1]; 14 days
  osteogenic activity (structure-activity summary, in words): modest potential

## CC1(C)C=Cc2c(ccc3c(=O)c(-c4ccc(B5OC(C)(C)C(C)(C)O5)cc4)coc23)O1 [compound 8, 8,8-dimethyl-3-(4-(4,4,5,5-tetramethyl-1,3,2-dioxaborolan-2-yl)phenyl)pyrano[2,3-f]chromen-4(8H)-one]
other
  melting point: 228 to 230 °C

## CCCCOc1ccc2c(c1)OCC(c1ccc(O)cc1)C2 (centres unmarked) [compound 9, 4-(7-Butoxychroman-3-yl)phenol]
[1]; 14 days
  osteogenic activity (structure-activity summary, in words): no osteogenic activity

## CC1(C)C=Cc2cc3c(cc2O1)OCC(c1ccc(O)cc1)C3 (centres unmarked) [compound 10, 4-(8,8-Dimethyl-2,3,4,8-tetrahydropyrano[3,2-g]chromen-3-yl)phenol]
[1]; 14 days
  osteogenesis averaged over all three donors, relative to vehicle treated MSCs: 2.2±0.19

## COc1ccc(C(=O)Nc2ccc(O)cc2)c(OC)c1 [compound 11, N-(4-Hydroxyphenyl)-2,4-dimethoxybenzamide]
[1]; 14 days
  osteogenic activity (structure-activity summary, in words): not active at all

## O=c1c(-c2ccc(O)cc2)coc2cc(O)ccc12 [daidzein, Daidzein]
[2]
  osteogenic potential of BMSCs relative to vehicle, with fulvestrant: 1.0 fold
  cytotoxicity of BMSCs by bright field microscopy, compared to vehicle: did not demonstrate enhanced cytotoxicity
  osteogenic differentiation (calcium deposition), fold relative to vehicle-treated BMSCs: 1.5 fold
[2]; 1 μM
  osteogenic potential of BMSCs relative to vehicle, inhibitor study, without fulvestrant: 1.7 fold
[4]
  osteogenic potential of ASCs relative to vehicle, with fulvestrant: 1.0 fold
  cytotoxicity of ASCs by bright field microscopy, compared to vehicle: did not demonstrate enhanced cytotoxicity
  osteogenic differentiation (calcium deposition), fold relative to vehicle-treated ASCs: 1.7 fold
[4]; 1 μM
  osteogenic potential of ASCs relative to vehicle, inhibitor study, without fulvestrant: 1.5 fold
[1]; [7]
  osteogenic differentiation of MSCs, fold relative to vehicle treated MSCs: 1.7±0.19 fold
[1]; [8]
  osteogenic differentiation of MSCs, fold relative to vehicle treated MSCs: 1.7±0.01 fold
[1]; [9]
  osteogenic differentiation of MSCs, fold relative to vehicle treated MSCs: 1.6±0.15 fold
[1]; [6]
  induction category of osteogenic differentiation (no, low, high induction): low inducers
  osteogenic differentiation relative to vehicle treated MSCs in ODM: 1.7±0.3 fold

## O=c1c(-c2ccc(O)cc2)coc2cc(O)cc(O)c12 [genistein, reference compound]
[2]; 6 donors, 1 μM
  BMSC donors that did not respond to treatment: 2 of the 6
[2]
  cytotoxicity of BMSCs by bright field microscopy, compared to vehicle: did not demonstrate enhanced cytotoxicity
  osteogenic differentiation (calcium deposition), fold relative to vehicle-treated BMSCs: 1.4 fold
[4]; 6 donors, 1 μM
  ASC donors that did not respond to treatment: 3 of the 6
[4]
  cytotoxicity of ASCs by bright field microscopy, compared to vehicle: did not demonstrate enhanced cytotoxicity
  osteogenic differentiation (calcium deposition), fold relative to vehicle-treated ASCs: 1.4 fold
[1]; [7]
  osteogenic differentiation of MSCs, fold relative to vehicle treated MSCs: 1.6±0.19 fold
[1]; [8]
  osteogenic differentiation of MSCs, fold relative to vehicle treated MSCs: 1.7±0.02 fold
[1]; [9]
  osteogenic differentiation of MSCs, fold relative to vehicle treated MSCs: 1.0±0.15 fold
